The term DC50 denotes the concentration at which degradation of the target reaches its halfway point. One may read the IC50 as the point on the concentration scale where inhibition reaches its midpoint.

These results are taken from patent US20240294495A1, “COMPOUNDS THAT MEDIATE PROTEIN DEGRADATION AND METHODS OF USE THEREOF” (Monte Rosa Therapeutics, Inc., priority 2021, published 2024).

Test [1] has as its target T1, GSPT1 (Homo sapiens, UniProt P15170+Q96SW2).
T1 construct: CAL-51 cells were purchased from DSMZ (cat. Number ACC302); endogenous in cells; host or cells: CAL-51 (DSMZ ACC302)
Nature of the test: Immunofluorescence assay for GSPT1 degradation in CAL-51 cells. The following applies: 6 h treatment, read-out: IF Class (GSPT1 degradation, DC50). It counts as cell-based. As to the method:
The representative compounds were tested in an immunofluorescence assay for their activity to degrade GSPT1. CAL-51 cells were purchased from DSMZ (cat. Number ACC302), sub-cultured in 90% Dulbecco's MEM (4.5 g/L glucose, Gibco 11965)+10% heat inactivated FBS (BioConcept, 2-01F136I) and incubated at 37° C., 5% CO2. For the assay imaging microtiter plate Cell Carrier 96 Ultra (Perkin Elmer 6055302) were pre-coated with Fibronectin (Sigma F085, 30 μl at 0.2 μg/mL) in PBS (100 μL, Gibco 14190) for 45 min at room temperature, rinsed with PBS and CAL-51 cells (30K cells/well) were plated and let to adhere overnight. Cells were treated with compounds typically using a serial dilution ranging from 30 μM to 0.1 nM for 6 h. Compounds were stored at 10 mM DMSO stocks. Vehicle (DMSO), positive (CC-885, 10 μM) and rescue controls (positive control plus 0.2 μM bortezomib) were also included at this stage. Cells were subsequently rinsed with PBS and fixed in 10% Formalin solution (50 μl, Sigma HT5011)) for 20 min at room temperature. Following three consecutive PBS washes (100 μL), cells were permeabilized in 0.1% Triton X-100 in PBS (Sigma 93443, 50 μl) for 15 min at room temperature. Following three further PBS washes, 50 μl blocking buffer (1% BSA, Sigma A4503, in PBS) was added for 45 min for signal-to noise reduction. Primary antibody (human GSPT1, Sigma HPA052488) was diluted in blocking buffer (dil.1/300, 35 μL/well) and incubated with the cells overnight at 4° C. After three PBS washes, Alexa-fluor 488 coupled secondary antibodies (Invitrogen, A32731, dil.1/1000), Alexa-fluor 647-Phalloidin (Invitrogen, A22287, dil.1/200) and DAPI (Thermo, #62248, dil.1/1000) were diluted in blocking buffer and incubated with the samples for 2 h at room temperature. After three final PBS washes, samples were conserved in 100 μL PBS in the dark, until measurement. Image acquisition was performed on the Operetta High-Content Imager (Perkin-Elmer). Fluorescence intensity of […] (GSPT1), Alexa-Fluor 647 (Actin) and DAPI (Nucleus) were measured. For the determination of GSPT1 DC50 values, a custom algorithm implemented in the PerkinElmer image analysis software Harmony-Acapella® was developed. After user-defined setting of adjustment parameters, the analysis was run identically without human intervention for all image fields. DAPI staining of the nuclei was used to determine the location of cells using standard nuclei detection modules. Segmentation artifacts were removed by threshold-based filters for area, roundness and intensity. The outline of the cells was determined analogously from the sum of the normalized, smoothed DAPI and Actin channel, starting from each nucleus. The Alexa-Fluor 488 (GSPT1) signal intensity in each cell was finally measured, in order to obtain a Mean intensity per cell. GSPT1 degradation (DC50) was calculated after normalization to controls and data import in CDD vault Database, using non-linear regression.
(§1) In Table 2, each compound is assigned a class (HTRF class) indicating the ability for Cereblon binding by means of their HTRF IC50 values according to Example 3: A, B or C. According to the code, A represents an IC50 value of <100 nM, B represents an IC50 value>100 nM and <1000 nM, C represents an IC50 value>1000 nM. IF Class assigns each compound a code indicating the ability for GSPT1 degradation: A, B or C. According to the code, A represents a DC50 value of <30 nM, B represents a DC50 value>30 nM and <300 nM and C represents a DC50 value of >300 nM.

In test [2] the target is CRBN-DDB1 (Homo sapiens, UniProt Q96SW2). As to the kind of experiment: Compound binding to CRBN by HTRF assay. The note with it: CRBN-DDB1 2.5 nM, Cy5-Thalidomide 100 nM probe, 30 min incubation; read-out: HTRF Class (Cereblon binding, HTRF IC50). As for the experimental part: Compound activity was monitored in a Homogenous Time-Resolved Fluorescence (HTRF) assay using 1-[5-({2-[2-(2-{[2-(2,6-dioxopiperidin-3-yl)-1,3-dioxo-2,3-dihydro-1H-isoindol-4-yl]oxy}acetamido)ethoxy]ethyl}carbamoyl)pentyl]-3,3-dimethyl-2-[(1E,3E)-5-[(2E)-1,3,3-trimethyl-5-sulfo-2,3-dihydro-1H-indol-2-ylidene]penta-1,3-dien-1-yl]-3H-indol-1-ium-5-sulfonate as a fluorescent probe. Biochemical assays were conducted in Greiner white 384 well HiBase plates (Cat. No 784075-25) in 10 μL total volume. A one pot detection solution of CRBN-DDB1 (2.5 nM), Anti-His Terbium Cryptate Gold (1×, PerkinElmer Cat. #: 61HI2TLB), and Cy5-Thalidomide (100 nM, Tenova Cat.: T52461) was prepared in 20 mM HEPES, 20 mM NaCl, 0.2 mM TCEP, 0.2 mM EDTA, and 0.005% Tween20 was dispensed to each assay plate. Compounds were stored in dry, ambient temperatures at 10 mM. A 10-point, 1:3 dilution series was prepared from 10 mM stock concentrations in Echo-compatible LDV plates. 10 nL of each compound dilution series was dispensed into assays wells using an Echo 650 (Labcyte inc. USA). 10 nL of 10 mM Lenalidomide was transferred into the active-control wells for the assay and 10 nL of DMSO was transferred into the neutral-control wells. The assay was then allowed to incubate for 30 min at ambient temperature after transferring compound. Plate measurements were taken on a Pherastar FSX (BMG Labtech, Germany) using the HTRF Red filter (Ex. 337 nm, em1: 620 nm, em2: 665 nm) (Flashes: 50, Integration time: 60-400 us, Z-height: 10 mm, Ratio-multiplier: 10,000). The HTRF signal was then subsequently normalized to the neutral and active controls. Analysis and IC50 values were derived using KNIME analytics (KNIME Zurich) transformation and fitting within Collaborative Drug Discovery (Collaborative Drug Discovery USA). Ki was derived from the geometric mean of the IC50 values using the Cheng-Prustoff transformation.
as §1
(TR-FRET usually uses a lanthanide donor and a delayed reading to cut background.)

SMILES strings stand for the structures.

CRBN-DDB1, sequence (Q96SW2 whole entry): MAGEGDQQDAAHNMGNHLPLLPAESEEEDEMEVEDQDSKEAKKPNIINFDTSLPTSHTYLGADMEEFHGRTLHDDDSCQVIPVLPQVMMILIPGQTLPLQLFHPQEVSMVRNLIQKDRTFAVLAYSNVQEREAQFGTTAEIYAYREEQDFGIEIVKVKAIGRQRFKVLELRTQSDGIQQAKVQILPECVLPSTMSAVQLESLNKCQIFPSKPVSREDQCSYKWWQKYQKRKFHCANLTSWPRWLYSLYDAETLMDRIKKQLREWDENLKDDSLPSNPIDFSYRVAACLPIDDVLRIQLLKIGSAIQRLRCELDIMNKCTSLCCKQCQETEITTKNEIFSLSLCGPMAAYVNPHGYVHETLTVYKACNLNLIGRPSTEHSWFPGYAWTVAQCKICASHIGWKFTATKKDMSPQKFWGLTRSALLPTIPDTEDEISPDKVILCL
CRBN-DDB1, sequence (Q16531 whole entry partner): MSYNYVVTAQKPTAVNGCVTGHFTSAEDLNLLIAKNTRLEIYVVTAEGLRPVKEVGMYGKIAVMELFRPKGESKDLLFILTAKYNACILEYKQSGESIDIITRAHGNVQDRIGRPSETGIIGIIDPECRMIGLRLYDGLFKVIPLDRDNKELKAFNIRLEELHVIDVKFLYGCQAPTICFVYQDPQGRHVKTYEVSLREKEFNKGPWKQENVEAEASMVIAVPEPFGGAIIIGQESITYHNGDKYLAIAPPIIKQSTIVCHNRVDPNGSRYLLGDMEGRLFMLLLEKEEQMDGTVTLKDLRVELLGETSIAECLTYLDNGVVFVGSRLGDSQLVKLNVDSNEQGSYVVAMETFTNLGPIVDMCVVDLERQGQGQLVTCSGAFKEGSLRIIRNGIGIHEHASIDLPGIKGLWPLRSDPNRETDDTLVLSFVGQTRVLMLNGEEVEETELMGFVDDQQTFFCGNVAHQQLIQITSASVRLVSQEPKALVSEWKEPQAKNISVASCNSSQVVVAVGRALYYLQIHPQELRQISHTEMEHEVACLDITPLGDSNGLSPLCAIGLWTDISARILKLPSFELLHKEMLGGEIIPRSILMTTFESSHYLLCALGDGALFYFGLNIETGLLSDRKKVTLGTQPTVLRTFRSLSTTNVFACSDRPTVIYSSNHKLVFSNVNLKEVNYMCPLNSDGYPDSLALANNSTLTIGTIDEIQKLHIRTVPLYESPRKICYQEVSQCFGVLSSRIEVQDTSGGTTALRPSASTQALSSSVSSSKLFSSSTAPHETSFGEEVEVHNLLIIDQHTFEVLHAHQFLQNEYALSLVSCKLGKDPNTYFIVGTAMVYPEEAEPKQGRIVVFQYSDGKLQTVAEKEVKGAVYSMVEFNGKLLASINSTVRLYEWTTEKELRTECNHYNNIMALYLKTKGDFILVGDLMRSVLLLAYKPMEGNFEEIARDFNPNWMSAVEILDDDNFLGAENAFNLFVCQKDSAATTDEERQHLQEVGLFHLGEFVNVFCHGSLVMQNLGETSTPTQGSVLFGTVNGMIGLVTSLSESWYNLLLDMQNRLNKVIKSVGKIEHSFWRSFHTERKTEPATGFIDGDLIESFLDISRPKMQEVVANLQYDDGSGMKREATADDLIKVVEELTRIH
T1 sequence (P15170 whole entry): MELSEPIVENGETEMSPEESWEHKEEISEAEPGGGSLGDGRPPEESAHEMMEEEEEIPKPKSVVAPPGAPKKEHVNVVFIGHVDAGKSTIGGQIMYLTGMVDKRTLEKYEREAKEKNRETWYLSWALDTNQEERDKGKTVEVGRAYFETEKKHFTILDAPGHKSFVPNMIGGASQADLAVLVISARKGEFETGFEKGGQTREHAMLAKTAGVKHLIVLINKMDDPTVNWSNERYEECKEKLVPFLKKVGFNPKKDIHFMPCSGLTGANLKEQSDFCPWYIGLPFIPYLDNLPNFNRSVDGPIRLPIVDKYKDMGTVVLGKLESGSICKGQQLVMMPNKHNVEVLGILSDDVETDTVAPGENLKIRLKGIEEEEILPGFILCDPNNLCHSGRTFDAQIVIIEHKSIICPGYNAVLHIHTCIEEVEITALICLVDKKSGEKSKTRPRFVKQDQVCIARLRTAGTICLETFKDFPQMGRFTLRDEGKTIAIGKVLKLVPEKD
T1 sequence (Q96SW2 whole entry): as the sequence (Q96SW2 whole entry) above
T1 sequence (Q16531 2-1140 partner limits assumed): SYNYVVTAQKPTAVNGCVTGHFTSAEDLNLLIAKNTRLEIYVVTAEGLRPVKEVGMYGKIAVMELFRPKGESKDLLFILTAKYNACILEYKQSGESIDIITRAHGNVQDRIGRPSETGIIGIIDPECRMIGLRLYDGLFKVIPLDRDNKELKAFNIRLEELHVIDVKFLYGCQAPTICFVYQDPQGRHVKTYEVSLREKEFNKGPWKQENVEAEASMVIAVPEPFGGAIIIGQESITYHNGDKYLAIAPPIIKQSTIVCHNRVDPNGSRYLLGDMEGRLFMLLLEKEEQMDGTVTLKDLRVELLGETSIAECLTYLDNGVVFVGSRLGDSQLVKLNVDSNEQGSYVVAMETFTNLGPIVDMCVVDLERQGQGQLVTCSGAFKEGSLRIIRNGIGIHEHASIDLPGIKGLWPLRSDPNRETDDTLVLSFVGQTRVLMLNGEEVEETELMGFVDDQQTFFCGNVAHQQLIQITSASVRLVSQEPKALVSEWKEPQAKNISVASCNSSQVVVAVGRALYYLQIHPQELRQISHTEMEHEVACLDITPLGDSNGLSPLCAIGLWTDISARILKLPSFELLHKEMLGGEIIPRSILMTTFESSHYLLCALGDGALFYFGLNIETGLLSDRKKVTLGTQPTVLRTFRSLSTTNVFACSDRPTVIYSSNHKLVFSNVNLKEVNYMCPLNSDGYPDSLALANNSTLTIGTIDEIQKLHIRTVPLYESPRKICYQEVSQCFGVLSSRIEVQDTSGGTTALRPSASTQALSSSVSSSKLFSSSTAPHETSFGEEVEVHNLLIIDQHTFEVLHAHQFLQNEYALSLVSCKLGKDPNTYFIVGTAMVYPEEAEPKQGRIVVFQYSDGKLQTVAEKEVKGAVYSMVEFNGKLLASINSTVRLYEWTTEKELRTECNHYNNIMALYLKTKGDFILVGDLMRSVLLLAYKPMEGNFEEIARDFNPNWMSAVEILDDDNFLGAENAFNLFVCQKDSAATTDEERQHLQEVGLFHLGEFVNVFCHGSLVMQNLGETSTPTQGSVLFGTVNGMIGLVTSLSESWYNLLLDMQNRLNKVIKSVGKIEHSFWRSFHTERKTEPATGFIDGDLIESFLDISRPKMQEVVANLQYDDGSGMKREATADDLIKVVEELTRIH

Take `O=C1CCC(c2c(F)cc(N3CC(CC(=O)Nc4cccc(OC(F)(F)F)c4)C3)cc2F)C(=O)N1` (stereo not shown) [Compound 39, 2-(1-(4-(2,6-dioxopiperidin-3-yl)-3,5-difluorophenyl)azetidin-3-yl)-N-(3-(trifluoromethoxy)phenyl)acetamide]: the DC50 in test [1] is 0.03 to 0.3 µM.

`O=C1CCC(c2ccc(N3CC(NC(=O)Cc4ccc(Cl)cc4)C3)cc2Cl)C(=O)N1` (stereo not shown) [Compound 34, N-(1-(3-chloro-4-(2,6-dioxopiperidin-3-yl)phenyl)azetidin-3-yl)-2-(4-chlorophenyl)acetamide]: the DC50 in test [1] is over 0.3 µM.

Regarding `O=C1CCC(c2c(F)cc(N3CC(CC(=O)Nc4cc(F)cc(OC(F)F)c4)C3)cc2F)C(=O)N1` (stereo not shown) [Compound 45, N-(3-(difluoromethoxy)-5-fluorophenyl)-2-(1-(4-(2,6-dioxopiperidin-3-yl)-3,5-difluorophenyl)azetidin-3-yl)acetamide], the DC50 in test [1] is over 0.3 µM.

Consider `Cc1cc(CC(=O)NC2CN(c3ccc(C4CCC(=O)NC4=O)c(Cl)c3)C2)ccc1Cl` (stereo not shown) [Compound 33, 2-(4-chloro-3-methylphenyl)-N-(1-(3-chloro-4-(2,6-dioxopiperidin-3-yl)phenyl)azetidin-3-yl)acetamide], for which the DC50 in test [1] is 0.03 to 0.3 µM. Besides, the IC50 in test [2] fell in the range of 0.1 to 1 µM.

Turning to `N#Cc1ccc(CC(=O)NC2CN(c3cc(F)c(C4CCC(=O)NC4=O)c(F)c3)C2)c(F)c1` (stereo not shown) [Compound 47, 2-(4-cyano-2-fluorophenyl)-N-(1-(4-(2,6-dioxopiperidin-3-yl)-3,5-difluorophenyl)azetidin-3-yl)acetamide], the DC50 in test [1] is over 0.3 µM. The IC50 in test [2] lay in the range of 0.1 to 1 µM.

Turning to `Cc1cc(F)c(NC(=O)CC2CN(c3cc(F)c(C4CCC(=O)NC4=O)c(F)c3)C2)cc1Cl` (stereo not shown) [Compound 5, N-(5-chloro-2-fluoro-4-methylphenyl)-2-(1-(4-(2,6-dioxopiperidin-3-yl)-3,5-difluorophenyl)azetidin-3-yl)acetamide], the DC50 in test [1] is under 0.03 µM. Moreover, the IC50 in test [2] fell in the range of 0.1 to 1 µM.

`O=C1CCC(c2c(F)cc(N3CC(NC(=O)Cc4ccc(F)cc4F)C3)cc2F)C(=O)N1` (stereo not shown) [Compound 11, 2-(2,4-difluorophenyl)-N-(1-(4-(2,6-dioxopiperidin-3-yl)-3,5-difluorophenyl)azetidin-3-yl)acetamide]: the DC50 in test [1] is under 0.03 µM. For the same compound, the IC50 in test [2] was in the range of 0.1 to 1 µM.

Turning to `Cc1ccc(NC(=O)CC2CN(c3cc(F)c(C4CCC(=O)NC4=O)c(F)c3)C2)cc1Cl` (stereo not shown) [Compound 40, N-(3-chloro-4-methylphenyl)-2-(1-(4-(2,6-dioxopiperidin-3-yl)-3,5-difluorophenyl)azetidin-3-yl)acetamide], in test [1], the DC50 is under 0.03 µM. Also, the IC50 in test [2] was over 1 µM.

For the compound `O=C1CCC(c2c(F)cc(N3CC(NC(=O)Cc4cc(F)cc(OC(F)F)c4)C3)cc2F)C(=O)N1` (stereo not shown) [Compound 26, 2-(3-(difluoromethoxy)-5-fluorophenyl)-N-(1-(4-(2,6-dioxopiperidin-3-yl)-3,5-difluorophenyl)azetidin-3-yl)acetamide], in test [1], the DC50 is over 0.3 µM. Besides, the IC50 in test [2] lay within 0.1 to 1 µM.

With `Cc1cc(CC(=O)NC2CN(c3cc(F)c(C4CCC(=O)NC4=O)c(F)c3)C2)ncc1Cl` (stereo not shown) [Compound 22, 2-(5-chloro-4-methylpyridin-2-yl)-N-(1-(4-(2,6-dioxopiperidin-3-yl)-3,5-difluorophenyl)azetidin-3-yl)acetamide], in test [1], the DC50 was over 0.3 µM. In addition, the IC50 in test [2] is 0.1 to 1 µM.

In the case of `N#Cc1ccc(CC(=O)NC2CN(c3cc(F)c(C4CCC(=O)NC4=O)c(F)c3)C2)c(Cl)c1` (stereo not shown) [Compound 1, 2-(2-chloro-4-cyanophenyl)-N-(1-(4-(2,6-dioxopiperidin-3-yl)-3,5-difluorophenyl)azetidin-3-yl)acetamide], in test [1], the DC50 was over 0.3 µM. Besides, the IC50 in test [2] fell in the range of 0.1 to 1 µM.

For the compound `Cc1cc(C)nc(CC(=O)NC2CN(c3cc(F)c(C4CCC(=O)NC4=O)c(F)c3)C2)c1` (stereo not shown) [Compound 51, 2-(4,6-dimethylpyridin-2-yl)-N-(1-(4-(2,6-dioxopiperidin-3-yl)-3,5-difluorophenyl)azetidin-3-yl) acetamide], the DC50 in test [1] is over 0.3 µM. Besides, in test [2], the IC50 is 0.1 to 1 µM.

As for `O=C1CCC(c2c(F)cc(N3CC(NC(=O)c4cc(Cl)ccc4F)C3)cc2F)C(=O)N1` (stereo not shown) [Compound 46, 5-chloro-N-(1-(4-(2,6-dioxopiperidin-3-yl)-3,5-difluorophenyl)azetidin-3-yl)-2-fluorobenzamide], the IC50 in test [2] was 0.1 to 1 µM.

For the compound `Cc1nc(CC(=O)NC2CN(c3cc(F)c(C4CCC(=O)NC4=O)c(F)c3)C2)ccc1Cl` (stereo not shown) [Compound 25, 2-(5-chloro-6-methylpyridin-2-yl)-N-(1-(4-(2,6-dioxopiperidin-3-yl)-3,5-difluorophenyl)azetidin-3-yl)acetamide], the DC50 in test [1] is over 0.3 µM. In addition, the concentration for half-maximal inhibition (IC50) in test [2] lay within 0.1 to 1 µM.

As to `Cc1c(Cl)cc(NC(=O)CC2CN(c3cc(F)c(C4CCC(=O)NC4=O)c(F)c3)C2)cc1CN1CCOCC1` (stereo not shown) [Compound 38, N-(3-chloro-4-methyl-5-(morpholinomethyl)phenyl)-2-(1-(4-(2,6-dioxopiperidin-3-yl)-3,5-difluorophenyl)azetidin-3-yl)acetamide], the DC50 in test [1] is under 0.03 µM.

Take `O=C1CCC(c2ccc(N3CC(NC(=O)C(F)(F)c4ccc(Cl)cc4)C3)cc2Cl)C(=O)N1` (stereo not shown) [Compound 35, N-(1-(3-chloro-4-(2,6-dioxopiperidin-3-yl)phenyl)azetidin-3-yl)-2-(4-chlorophenyl)-2,2-difluoroacetamide]: the DC50 in test [1] is over 0.3 µM.

On to `O=C1CCC(c2c(F)cc(N3CC(NC(=O)C(F)(F)c4ccc(Cl)cc4)C3)cc2F)C(=O)N1` (stereo not shown) [Compound 37, 2-(4-chlorophenyl)-N-(1-(4-(2,6-dioxopiperidin-3-yl)-3,5-difluorophenyl)azetidin-3-yl)-2,2-difluoroacetamide], for which the DC50 in test [1] is over 0.3 µM.

Regarding `N#Cc1cc(Cl)cc(CC(=O)NC2CN(c3cc(F)c(C4CCC(=O)NC4=O)c(F)c3)C2)c1` (stereo not shown) [Compound 44, 2-(3-chloro-5-cyanophenyl)-N-(1-(4-(2,6-dioxopiperidin-3-yl)-3,5-difluorophenyl)azetidin-3-yl)acetamide], the DC50 in test [1] is 0.03 to 0.3 µM.
